In patent publication US6008247A, “2,4-bis[(4-amidino)phenyl]furans as anti-Pneumocystis carinii agents” (The University of North Carolina at Chapel Hill, priority 1998, dated 1999):
Structures can show the parent of a compound that is named as a salt.

Tests used:
[1] = tested on: DNA duplex polymer poly(dA-dT); test: Thermal melting, interaction with the DNA duplex polymer poly(dA-dT); assay type: binding
Excerpt: (§1) Table 2 contains thermal melting results from evaluation of the interaction of compounds 3, 5 and 7 with the DNA duplex polymer poly(dA-dT). In order to rank the relative binding affinities for interactions with DNA, the duplex oligomer d(CGCGAATTCGCG)2 (A2 T2) was employed. […] The increase in melting temperature on complex formation with the furan dications are related to the binding affinities of these molecules with nucleic acid. This enhanced DNA affinity of the N-alkyl substituted amidines is though to the in large part due to additional non-bonded interactions between the alkyl groups and the walls of the minor groove.
^a) Increase in thermal melting of polyA-- polyT, see Boykin, […]

[2] = tested on: duplex oligomer d(CGCGAATTCGCG)2 (A2 T2); test: Thermal melting with the duplex oligomer, ranking of relative DNA binding affinities; conditions: duplex oligomer A2T2
Excerpt: as §1
^b) Increase in thermal melting of the oligomer […], see

Pneumocystis carinii = test: In vivo evaluation on intravenous administration against P. carinii in the immunosuppressed rat model; conditions: saline = 100.0
[3] = Toxicity in the immunosuppressed rat model of Pneumocystis carinii pneumonia; assay type: in vivo; conditions: iv
Excerpt: Data obtained with pentamidine, a compound currently used clinically for treatment of PCP, are included for comparison.
^c) Evluation of iv dosage of the furon dicatons against P. carinii i
rats as descibed in Boykin, supra.

N=C(N)c1ccc(-c2coc(-c3ccc(C(=N)N)cc3)c2)cc1 [Compound 1, 2,4-Bis[4-{(amidino)pnehyl}]furan]
ΔTm (DNA), increase in thermal melting of polyA-polyT [1]: 19.0 | ΔTM (oligomer), increase in thermal melting of the oligomer [2]: 9.1 | Cysts/g lung (Pneumocystis carinii; 10.0 umol/kg/d): 0.44 % of control | Toxicity ([3]; 10.0 umol/kg/d): 0

CC(C)NC(=N)c1ccc(-c2coc(-c3ccc(C(=N)NC(C)C)cc3)c2)cc1 [Compound 2, 2,4-Bis[4-{N-(i-propylamidino)phenyl}]furan]
ΔTm (DNA), increase in thermal melting of polyA-polyT [1]: 17.6 | ΔTM (oligomer), increase in thermal melting of the oligomer [2]: 10.9 | Cysts/g lung (Pneumocystis carinii; 0.25 umol/kg/d): 38.20 % of control | Cysts/g lung (Pneumocystis carinii; 1.0 umol/kg/d): 0.84 % of control | Cysts/g lung (Pneumocystis carinii; 5.0 umol/kg/d): 0.0003 % of control | Cysts/g lung (Pneumocystis carinii; 10.0 umol/kg/d): 0.03 % of control | Toxicity ([3]; 0.25 umol/kg/d): 0 | Toxicity ([3]; 1.0 umol/kg/d): 0 | Toxicity ([3]; 5.0 umol/kg/d): 0 | Toxicity ([3]; 10.0 umol/kg/d): 0

CC(C)CNC(=N)c1ccc(-c2coc(-c3ccc(C(=N)NCC(C)C)cc3)c2)cc1 [Compound 3, 2-,4-Bis[4-{-(i-butylamidino)phenyl}]furan]
ΔTm (DNA), increase in thermal melting of polyA-polyT [1]: 20.4 | ΔTM (oligomer), increase in thermal melting of the oligomer [2]: 9.3

N=C(NC1CCCC1)c1ccc(-c2coc(-c3ccc(C(=N)NC4CCCC4)cc3)c2)cc1 [Compound 4, 2,4-Bis[4-{N-(cyelopentylamidino)phenyl}]furan]
ΔTm (DNA), increase in thermal melting of polyA-polyT [1]: 20.4 | ΔTM (oligomer), increase in thermal melting of the oligomer [2]: 13.6 | Cysts/g lung (Pneumocystis carinii; 1.0 umol/kg/d): 3.21 % of control | Cysts/g lung (Pneumocystis carinii; 10.0 umol/kg/d): 0.06 % of control | Toxicity ([3]; 10.0 umol/kg/d): 0

c1cc(-c2coc(-c3ccc(C4=NCCN4)cc3)c2)ccc1C1=NCCN1 [Compound 5, 2,4-Bis[4,5-dihydro-1H-imidazol-2-yl)phenyl]furan Dihydrochloride]
ΔTm (DNA), increase in thermal melting of polyA-polyT [1]: 16.8 | ΔTM (oligomer), increase in thermal melting of the oligomer [2]: 7.2

N=C(N)c1ccc(OCCCCCOc2ccc(C(=N)N)cc2)cc1 [pentamidine, reference compound]
Cysts/g lung (Pneumocystis carinii; 22.0 umol/kg/d): 1.46 % of control
